According to patent US20250188082A1, “Use of Hypoxanthine Compound In Preparation of Drug For Treating Pulmonary Fibrosis” (Sichuan Yiasuo Pharmaceutical Technology Co., Ltd., priority 2022, published 2025):

How the values were obtained:
Format in all cases: in vivo, C57BL/6 mice
[1] = test system: bleomycin-induced pulmonary fibrosis model; assay: Advanced pulmonary fibrosis: bleomycin-induced model, dosing from three weeks after modelling; conditions: for Leucocyte / Lymphocyte / Neutrophil / Ashcroft scores: advanced pulmonary fibrosis, 120 mg/kg/d intragastric, 14 days, from three weeks after model; for Leucocyte / Lymphocyte / Neutrophil: blood, Day 15, twice every day; for Ashcroft scores: lung tissue HE staining
[2] = test system: bleomycin-induced pulmonary fibrosis model; assay: Early pulmonary fibrosis: bleomycin-induced model, dosing from one week after modelling; conditions: for Leucocyte / Lymphocyte / Neutrophil / Ashcroft scores: early pulmonary fibrosis, 120 mg/kg/d intragastric, 14 days, from one week after model; for Leucocyte / Lymphocyte / Neutrophil: blood, Day 15, twice every day; for Ashcroft scores: lung tissue HE staining
[3] = test system: influenza B virus-induced pulmonary fibrosis model (influenza B (H7N9) virus); conditions: 120 mg/kg/d intragastric, 14 days; for Ashcroft scores: influenza B virus + bleomycin, lung tissue HE; for IL-1β / NF-κB / TNF-α / IL-6: serum, from two weeks after model; for IL-1β / NF-κB / TNF-α: influenza B (H7N9) + bleomycin; for IL-6: influenza B + bleomycin
[4] = test system: bleomycin-induced pulmonary fibrosis model; assay: Comparison with comparative drugs: bleomycin-induced model, hydroxyproline and TGF-β; conditions: 120 mg/kg/d intragastric, twice every day, 14 days, from two weeks after model; Day 15
[5] = test system: Streptococcus pneumoniae-induced pulmonary fibrosis model; assay: Streptococcus pneumoniae-induced pulmonary fibrosis model; conditions: for Leucocyte / Lymphocyte / Neutrophil / Ashcroft scores: Streptococcus pneumoniae + bleomycin, 120 mg/kg/d intragastric, 14 days; for Leucocyte / Lymphocyte / Neutrophil: blood, Day 15, 3 times every day, from one week after model; for Ashcroft scores: lung tissue HE staining
[6] = test system: coronavirus-induced pulmonary fibrosis model (HcoV-OC43); assay: Coronavirus-induced pulmonary fibrosis model; conditions: 120 mg/kg/d intragastric, 14 days; for Ashcroft scores: coronavirus HcoV-OC43 + bleomycin, lung tissue HE; for IL-1β / IL-6 / NF-κB / TNF-α: serum, HcoV-OC43 + bleomycin, from two weeks after model
Excerpt: Experimental method: an in-vivo coronavirus-induced pulmonary fibrosis model mice was established: C57BL/6 mice (with weights being 22-25 g) were randomly and evenly divided into a plurality of groups, including blank control group, model group, Nintedanib positive control group, hypoxanthine analogue A group, hypoxanthine analogue B group, hypoxanthine analogue C group, compound 1 group, compound 2 group . . . compound 12 group, with 9 mice in each group. On Day 1, the mice in the blank control group were instilled with normal saline nasally, and the mice in other groups were all infected with HcoV-OC43 coronavirus strains (30 μL) through nasal instillation. On Day 2, the mice received 5 mg/kg bleomycin through tracheas to induce their pulmonary fibrosis. After the model was established for two weeks, the mice in each group were intragastrically administrated for intervention for consecutive 14 days; the mice in blank control group and model group intragastrically received the same dosage of the normal saline as those in drug groups; the mice in Nintedanib positive control group received Nintedanib (120 mg/kg); the mice in hypoxanthine analogue A group, hypoxanthine analogue B group and hypoxanthine analogue C group respectively received hypoxanthine analogue A (120 mg/kg/d), hypoxanthine analogue B (120 mg/kg/d) and hypoxanthine analogue C (120 mg/kg/d); and the mice in compound 1 group, compound 2 group . . . compound 12 group respectively received compound 1 (120 mg/kg/d), compound 2 (120 mg/kg/d) . . . compound 12 (120 mg/kg/d) prepared in example 1. After administration for consecutive 14 days, the mice were observed every day, and their weights and death conditions were recorded. After administration, blood was taken from eyeballs for immediately detecting the expression levels of NF-κB, TNF-α, IL-1 and IL-6 in serum, and lung tissues were taken for HE detection and Ashcroft scoring.

Structure (SMILES) | Leucocyte [1] | Lymphocyte [1] | Neutrophil [1] | Ashcroft scores [1] | Leucocyte [2] | Lymphocyte [2] | Neutrophil [2] | Ashcroft scores [2] | Ashcroft scores [3] | IL-1β [3] [pg/mL] | NF-κB [3] [pg/mL] | TNF-α [3] [pg/mL] | IL-6 [3] [pg/mL] | Hydroxyproline in bronchoalveolar lavage fluids [4] [µg/mg] | Hydroxyproline in lung tissues [4] [µg/mg] | TGF-β in bronchoalveolar lavage fluids [4] [µg/L] | TGF-β in lung tissues [4] [µg/L] | Leucocyte [5] | Lymphocyte [5] | Neutrophil [5] | also measured
CC(C)Oc1ncnc2nc[nH]c12 [Compound 5] | 4.34 10^9/L | 5.74 10^9/L | 1.36 10^9/L | 1.22 | 4.23 10^9/L | 5.60 10^9/L | 1.26 10^9/L | 1.22 | 1.18 | 28.1 | 31.4 | 76.6 | 66.9 | 0.69 ± 0.09 | 1.43 ± 0.07 | 3.93 ± 0.18 | 24.18 ± 1.65 | 6.75 10^9/L | 7.64 10^9/L | 1.82 10^9/L | Ashcroft scores [5]: 1.25; Ashcroft scores [6]: 1.31; IL-1β [6]: 37.1 pg/mL; IL-6 [6]: 64.9 pg/mL; NF-κB [6]: 25.9 pg/mL; TNF-α [6]: 52.6 pg/mL
O=c1[nH]cnc2[nH]cnc12 [Hypoxanthine analogue A, reference compound] | 66.48 10^9/L | 71.65 10^9/L | 67.48 10^9/L | 5.88 | 52.12 10^9/L | 49.53 10^9/L | 41.21 10^9/L | 5.00 | 6.26 | 239.9 | 630.5 | 191.3 | 194.8 | 1.46 ± 0.13 | 2.69 ± 0.12 | 9.23 ± 0.26 | 96.47 ± 8.25 | 155.12 10^9/L | 90.75 10^9/L | 89.99 10^9/L | inhibition (anti-inflammatory) effect on leucocytes, neutrophils and lymphocytes in blood ([1]; mice with advanced pulmonary fibrosis, result in words): obviously inferior; inhibition (anti-inflammatory) effect on leucocytes, neutrophils and lymphocytes in blood ([2]; mice with early pulmonary fibrosis, result in words): obviously inferior; Ashcroft scores [5]: 6.12; inhibition (anti-inflammatory) effect on leucocytes, neutrophils and lymphocytes in blood ([5]; mice with Streptococcus pneumoniae-induced pulmonary fibrosis, result in words): obviously inferior; Ashcroft scores [6]: 6.23; IL-1β [6]: 688.8 pg/mL; IL-6 [6]: 519.4 pg/mL; NF-κB [6]: 719.1 pg/mL; TNF-α [6]: 450.7 pg/mL
CC(C)Oc1ncnc2[nH]cnc12 [Compound 1] | 4.28 10^9/L | 5.33 10^9/L | 1.37 10^9/L | 0.95 | 4.15 10^9/L | 5.42 10^9/L | 1.11 10^9/L | 0.99 | 1.19 | 26.3 | 30.5 | 72.9 | 65.1 | 0.75 ± 0.04 | 1.45 ± 0.09 | 4.05 ± 0.15 | 24.15 ± 1.21 | 5.52 10^9/L | 5.99 10^9/L | 2.00 10^9/L | Ashcroft scores [5]: 1.20; Ashcroft scores [6]: 1.18; IL-1β [6]: 31.8 pg/mL; IL-6 [6]: 62.7 pg/mL; NF-κB [6]: 23.9 pg/mL; TNF-α [6]: 51.8 pg/mL
CC(=O)Oc1ncnc2c1ncn2C(C)C [Compound 11] | 4.22 10^9/L | 5.57 10^9/L | 1.39 10^9/L | 1.07 | 4.09 10^9/L | 5.20 10^9/L | 1.10 10^9/L | 1.08 | 1.15 | 26.8 | 31.6 | 73.5 | 65.3 | 0.75 ± 0.05 | 1.43 ± 0.11 | 4.02 ± 0.15 | 23.98 ± 2.19 | 6.29 10^9/L | 6.21 10^9/L | 1.81 10^9/L | Ashcroft scores [5]: 1.28; Ashcroft scores [6]: 1.29; IL-1β [6]: 35.4 pg/mL; IL-6 [6]: 63.3 pg/mL; NF-κB [6]: 25.1 pg/mL; TNF-α [6]: 52.1 pg/mL
